From the supplement of paper PMC10307832

Tests used:
Assay in all cases: relative viability (nuclei count vs DMSO), 5 days (fraction); higher = more cells survive
Metformin + Pictilisib = compound: CN(C)C(=N)NC(=N)N [Metformin] + CS(=O)(=O)N1CCN(Cc2cc3nc(-c4cccc5[nH]ncc45)nc(N4CCOCC4)c3s2)CC1 [Pictilisib] (partner 1 µM)
Outline: (§1)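 Relative viability is defined as nuclei in treated wells over nuclei in vehicle wells. Duplicate plates were run and medians reported. Lung cancer cell lines in 1536-well plates were dosed by pin tool one day after seeding, with one drug or with a fixed anchor-drug dose plus five library-drug doses (not always all listed) in √10 steps, and nuclei were counted after 5 days.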

Metformin + Decitabine = compound: CN(C)C(=N)NC(=N)N [Metformin] + Nc1ncn([C@H]2C[C@H](O)[C@@H](CO)O2)c(=O)n1 [Decitabine] (partner 2 µM)
Outline: as §1

Apatinib + Trametinib = compound: N#CC1(c2ccc(NC(=O)c3cccnc3NCc3ccncc3)cc2)CCCC1 [Apatinib] + CC(=O)Nc1cccc(-n2c(=O)n(C3CC3)c(=O)c3c(Nc4ccc(I)cc4F)n(C)c(=O)c(C)c32)c1 [Trametinib] (partner 0.02 µM)
Outline: as §1

Apatinib + AZD7762 = compound: N#CC1(c2ccc(NC(=O)c3cccnc3NCc3ccncc3)cc2)CCCC1 [Apatinib] + NC(=O)Nc1cc(-c2cccc(F)c2)sc1C(=O)N[C@H]1CCCNC1 [AZD7762] (partner 0.2 µM)
Outline: as §1

Row | Cell Line | relative viability (Metformin + Pictilisib; first compound 10 µM) | relative viability (Metformin + Pictilisib; first compound 31.62 µM) | relative viability (Metformin + Pictilisib; first compound 100 µM) | relative viability (Metformin + Pictilisib; first compound 316.23 µM) | relative viability (Metformin + Pictilisib; first compound 1000 µM) | relative viability (Metformin + Decitabine; first compound 10 µM) | relative viability (Metformin + Decitabine; first compound 31.62 µM) | relative viability (Metformin + Decitabine; first compound 100 µM) | relative viability (Metformin + Decitabine; first compound 316.23 µM) | relative viability (Metformin + Decitabine; first compound 1000 µM) | relative viability (Apatinib + Trametinib; first compound 0.08 µM) | relative viability (Apatinib + Trametinib; first compound 0.253 µM) | relative viability (Apatinib + Trametinib; first compound 0.8 µM) | relative viability (Apatinib + Trametinib; first compound 2.53 µM) | relative viability (Apatinib + Trametinib; first compound 8 µM) | relative viability (Apatinib + AZD7762; first compound 0.08 µM) | relative viability (Apatinib + AZD7762; first compound 0.253 µM) | relative viability (Apatinib + AZD7762; first compound 0.8 µM) | relative viability (Apatinib + AZD7762; first compound 2.53 µM) | relative viability (Apatinib + AZD7762; first compound 8 µM)
1 | NCI-H2347 | 0.665 | 0.834 | 1.02 | 0.492 | 0.659 | 0.532 | 0.597 | 0.605 | 0.573 | 0.578 | 0.294 | 0.228 | 0.249 | 0.291 | 0.268 | 0.716 | 0.791 | 0.823 | 0.654 | 0.556
2 | LC-2-ad |  | 0.471 | 0.334 | 0.426 | 0.408 |  | 0.736 | 0.826 | 0.583 | 0.642 | 0.94 | 0.926 | 0.907 | 0.678 | 0.659 | 0.86 | 0.892 | 0.779 | 0.825 | 0.799
3 | NCI-H1793 | 0.29 | 0.399 | 0.304 | 0.268 | 0.38 | 0.503 | 0.439 | 0.458 | 0.449 | 0.621 | 0.432 | 0.449 | 0.443 | 0.34 | 0.301 | 0.669 | 0.41 | 0.257 | 0.209 | 0.116
4 | NCI-H1666 | 0.481 | 0.536 | 0.352 | 0.356 | 0.467 | 0.66 | 0.713 | 0.649 | 0.619 | 0.823 | 0.843 | 0.942 | 0.783 | 0.81 | 0.681 | 0.828 | 0.871 | 0.776 | 0.769 | 0.746
5 | HOP-62 | 0.739 | 0.656 | 0.786 | 0.531 | 0.657 | 0.193 | 0.144 | 0.18 | 0.208 | 0.186 | 0.411 | 0.395 | 0.36 | 0.422 | 0.394 | 0.676 | 0.536 | 0.453 | 0.361 | 0.348
6 | BEN | 0.831 | 0.754 | 0.626 | 0.625 | 0.769 | 0.768 | 0.777 | 0.646 | 0.661 | 0.752 | 1.22 | 0.944 | 1.11 | 0.948 | 0.687 | 0.529 | 0.67 | 0.694 | 0.449 | 0.621
7 | HCC-366 | 0.141 | 0.213 | 0.138 | 0.115 | 0.185 | 0.288 | 0.293 | 0.306 | 0.291 | 0.289 | 0.336 | 0.393 | 0.369 | 0.314 | 0.273 | 0.283 | 0.457 | 0.135 | 0.128 | 0.0774
8 | EMC-BAC-2 | 0.475 | 0.536 | 0.528 | 0.523 | 0.523 | 0.844 | 1.02 |  | 0.855 | 0.861 |  | 0.869 | 0.887 | 0.818 | 0.799 | 1.1 | 1.07 | 1.06 | 0.91 | 0.998
9 | A-427 | 0.79 | 0.896 | 0.713 | 0.68 | 0.763 | 0.524 | 0.587 | 0.571 | 0.521 | 0.574 | 0.832 | 0.741 | 0.726 | 0.737 | 0.521 | 0.71 | 0.761 | 0.665 | 0.572 | 0.527
10 | NCI-H1792 |  | 0.398 | 0.393 | 0.47 | 0.428 | 0.449 | 0.428 | 0.482 | 0.386 | 0.496 | 0.433 | 0.436 | 0.349 | 0.342 | 0.302 | 0.881 | 0.68 | 0.528 | 0.508 | 0.211
11 | LCLC-103H | 0.713 | 0.717 | 0.711 | 0.669 | 0.607 | 0.72 | 0.738 | 0.714 | 0.714 | 0.788 | 0.702 | 0.699 | 0.722 | 0.713 | 0.688 | 0.801 | 0.741 | 0.858 | 0.7 | 0.75
12 | NCI-H3122 | 0.488 | 0.588 | 0.459 | 0.437 | 0.5 | 0.343 | 0.371 | 0.361 | 0.359 | 0.369 | 0.251 | 0.234 | 0.247 | 0.181 | 0.176 | 0.983 | 0.988 | 1.02 | 0.946 | 0.933
13 | PC-3 [JPC-3] | 0.773 | 0.728 | 0.771 | 0.751 | 0.709 | 0.786 | 0.848 |  | 0.841 | 0.732 |  | 0.786 | 0.553 | 0.646 | 0.654 |  | 0.745 | 0.672 | 0.63 | 0.688
14 | EKVX | 0.404 | 0.392 | 0.453 | 0.414 | 0.392 |  | 0.302 | 0.369 | 0.325 | 0.322 | 0.419 | 0.362 | 0.32 | 0.392 | 0.251 | 0.641 | 0.572 | 0.656 | 0.593 | 0.574
15 | HCC-827 |  | 0.914 | 1.13 | 0.996 | 1.15 | 0.321 | 0.315 | 0.312 | 0.322 | 0.364 | 0.525 | 0.533 | 0.492 | 0.519 | 0.425 | 0.166 | 0.213 | 0.165 | 0.141 | 0.158
16 | HCC-44 | 0.682 | 0.771 | 0.734 | 0.63 | 0.7 |  | 0.934 | 0.927 | 0.959 | 0.966 | 1.08 | 0.993 | 1.07 | 1.09 | 0.811 | 1.03 | 1.01 | 0.983 | 0.96 | 0.947
17 | NCI-H838 | 0.535 | 0.543 | 0.477 | 0.494 | 0.682 | 0.478 | 0.465 | 0.482 | 0.396 | 0.459 | 0.626 | 0.573 | 0.473 | 0.49 | 0.467 | 0.979 | 0.957 | 0.941 | 0.885 | 0.865
